Measurements reported in patent US7001907B2, “Peptide-containing α-ketoamide cysteine and serine protease inhibitors” (Cephaon, Inc., priority 1997, dated 2006).

These molecules were tested against T1, Recombinant human calpain I (Homo sapiens, UniProt P07384) (assay: Inhibition of cysteine protease activity: calpain I, Succ-Leu-Tyr-MNA substrate hydrolysis). Details: Table 2, linear α-ketoamides.
T1 construct: made in house
T1 sequence (P07384 1-714): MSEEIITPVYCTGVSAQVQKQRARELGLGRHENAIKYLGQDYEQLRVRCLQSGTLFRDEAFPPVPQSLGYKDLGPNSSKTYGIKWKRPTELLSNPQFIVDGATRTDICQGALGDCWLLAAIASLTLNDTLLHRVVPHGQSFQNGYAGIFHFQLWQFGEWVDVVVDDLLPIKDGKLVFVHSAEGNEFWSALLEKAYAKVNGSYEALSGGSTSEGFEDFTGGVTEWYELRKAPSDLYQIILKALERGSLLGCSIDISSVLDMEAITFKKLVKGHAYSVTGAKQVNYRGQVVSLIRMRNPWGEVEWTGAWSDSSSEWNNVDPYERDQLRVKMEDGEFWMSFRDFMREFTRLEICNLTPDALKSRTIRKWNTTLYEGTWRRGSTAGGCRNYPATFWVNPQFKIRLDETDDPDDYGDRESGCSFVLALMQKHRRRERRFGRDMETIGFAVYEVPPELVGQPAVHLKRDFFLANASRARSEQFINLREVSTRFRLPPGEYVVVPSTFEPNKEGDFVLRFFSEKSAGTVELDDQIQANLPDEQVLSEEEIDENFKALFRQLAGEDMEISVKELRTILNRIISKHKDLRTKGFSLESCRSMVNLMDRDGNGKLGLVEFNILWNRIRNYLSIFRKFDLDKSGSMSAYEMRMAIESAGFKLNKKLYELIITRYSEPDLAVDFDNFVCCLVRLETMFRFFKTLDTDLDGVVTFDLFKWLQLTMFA
T1 sequence (P04632 1-268 partner): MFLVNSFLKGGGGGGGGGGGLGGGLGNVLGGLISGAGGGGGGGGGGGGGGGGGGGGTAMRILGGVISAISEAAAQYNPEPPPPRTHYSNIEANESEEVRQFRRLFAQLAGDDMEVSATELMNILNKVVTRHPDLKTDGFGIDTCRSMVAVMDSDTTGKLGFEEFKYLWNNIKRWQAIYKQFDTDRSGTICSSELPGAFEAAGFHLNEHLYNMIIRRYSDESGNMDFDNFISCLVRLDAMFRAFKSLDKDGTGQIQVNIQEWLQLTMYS
Assay type: biochemical
Protocol: To evaluate inhibitory activity, stock solutions (40 times concentrated) of each compound to be tested were prepared in 100% anhydrous DMSO and 5 μl of each inhibitor preparation were aliquoted into each of three wells of a 96-well plate. Recombinant human calpain I, prepared by the method of Meyer et al. (Biochem. J. 1996, 314: 511–519; incorporated herein by reference in its entirety), was diluted into assay buffer (i.e., 50 mM Tris, 50 mM NaCl, 1 mM EDTA, 1 mM EGTA, and 5 mM β-mercaptoethanol, pH 7.5, including 0.2 mM Succ-Leu-Tyr-MNA), and 175 μl was aliquoted into the same wells containing the independent inhibitor stocks as well as to positive control wells containing 5 μl DMSO, but no compound. To start the reaction, 20 μl of 50 mM CaCl2 in assay buffer was added to all wells of the plate, excepting three, which were used as background signal baseline controls. Substrate hydrolysis was monitored every 5 minutes for a total of 30 minutes. Substrate hydrolysis in the absence of inhibitor was linear for up to 15 minutes.
Inhibition of calpain I activity was calculated as the percent decrease in the rate of substrate hydrolysis in the presence of inhibitor relative to the rate in its absence. Comparison between the inhibited and control rates was made within the linear range for substrate hydrolysis. The IC50s of inhibitors (concentration yielding 50% inhibition) were determined from the percent decrease in rates of substrate hydrolysis in the presence of five to seven different concentrations of the test compound. The results were plotted as percent inhibition versus log inhibitor concentration, and the IC50 was calculated by fitting the data to the four-parameter logistic equation shown below using the program GraphPad Prism (GraphPad Software, Inc., San Diego, Calif.). y=d+[(a−d)/(1+(x/c)^b)]
The parameters a, b, c, and d are defined as follows: a is % inhibition in the absence of inhibitor, b is the slope, c is the IC50, and d is the % inhibition at an infinite concentration of inhibitor.

IC50 [nM] | SMILES
25 | Cn1nc(-c2ccc(S(=O)(=O)NCCNC(=O)C(=O)C(Cc3ccccc3)NC(=O)C(COCc3ccccc3)NS(C)(=O)=O)s2)cc1C(F)(F)F (mixture of isomers) [Compound 34]
31 | CS(=O)(=O)NC(COCc1ccccc1)C(=O)NC(Cc1ccccc1)C(=O)C(=O)NCCNS(=O)(=O)c1ccc(-c2cccc(N)c2)s1 (mixture of isomers) [Compound 44]
22 | CS(=O)(=O)N[C@H](COCc1ccccc1)C(=O)N[C@@H](Cc1ccccc1)C(=O)C(=O)NCCNS(=O)(=O)c1ccc(Br)s1 [Compound 39]

Same assay, conditions: Table 2; 10 μM compound; values in brackets marked **

Percent inhibition @ 10 μM (Calpain) | SMILES
(97%) | O=C(NCCNS(=O)(=O)c1ccccc1)C(=O)[C@H](Cc1ccccc1)NC(=O)[C@H](Cc1ccccc1)NS(=O)(=O)c1ccccc1 [Compound 30]

Same assay, conditions: Table 3, branched-chain α-ketoamides

IC50 [nM] | SMILES
43 | C[C@H](CNC(=O)C(=O)[C@H](Cc1ccccc1)NC(=O)[C@@H](COCc1ccccc1)NS(C)(=O)=O)NS(=O)(=O)c1ccccc1 [Compound 48]

Same assay, conditions: Table 3; concentration not given

Calpain percent inhibition, value in brackets marked ** | SMILES
(100%) | CN(CCNC(=O)C(=O)[C@H](Cc1ccccc1)NC(=O)[C@@H](COCc1ccccc1)NS(C)(=O)=O)S(=O)(=O)c1ccccc1 [Compound 50]

Same assay, conditions: Table 4, α-ketoamides

SMILES | IC50 [nM]
CS(=O)(=O)N[C@H](COCc1ccccc1)C(=O)N[C@@H](Cc1ccccc1)C(=O)C(=O)NCCCS(=O)(=O)N1CCOCC1 [Compound 81] | 124
CS(=O)(=O)NC(COCc1ccccc1)C(=O)NC(Cc1ccccc1)C(=O)C(=O)NCCNS(=O)(=O)c1ccc(CN2CC=CC2)cc1 (mixture of isomers) [Compound 111] | 73
CS(=O)(=O)N[C@H](COCc1ccccc1)C(=O)N[C@@H](Cc1ccccc1)C(=O)C(=O)NCCNS(=O)(=O)c1ccc(-c2cccc(CN3CCSCC3)c2)s1 [Compound 114] | 33
CN(Cc1cccc(-c2ccc(S(=O)(=O)NCCNC(=O)C(=O)[C@H](Cc3ccccc3)NC(=O)[C@@H](COCc3ccccc3)NS(C)(=O)=O)s2)c1)C1CCCCC1 [Compound 102] | 36
CS(=O)(=O)N[C@H](COCc1ccccc1)C(=O)N[C@@H](Cc1ccccc1)C(=O)C(=O)NCCNS(=O)(=O)c1ccc(-c2cccc(CN3CCOCC3)c2)s1 [Compound 56] | 18
CS(=O)(=O)NC(C(=O)NC(Cc1ccccc1)C(=O)C(=O)NCCNS(=O)(=O)c1ccccc1)c1ccccc1 (mixture of isomers) [Compound 69] | 80
CC(C)(C)OC(=O)NC1CCCC(NC(=O)C(=O)[C@H](Cc2ccccc2)NC(=O)[C@@H](COCc2ccccc2)NS(C)(=O)=O)C1 (stereo partly drawn) [Compound 55] | 42
COCCN(CCOC)Cc1cccc(-c2ccc(S(=O)(=O)NCCNC(=O)C(=O)[C@H](Cc3ccccc3)NC(=O)[C@@H](COCc3ccccc3)NS(C)(=O)=O)s2)c1 [Compound 109] | 22
CS(=O)(=O)N[C@H](COCc1ccccc1)C(=O)N[C@@H](Cc1ccccc1)C(=O)C(=O)NCCCS(=O)(=O)NN1CCOCC1 [Compound 80] | 169

Continued, values first:

IC50 [nM] | SMILES
18 | CS(=O)(=O)N[C@H](Cc1ccccc1)C(=O)N[C@@H](Cc1ccccc1)C(=O)C(=O)NCCNS(=O)(=O)c1ccc(-c2ccccn2)s1 [Compound 71]
10 | CS(=O)(=O)N[C@H](COCc1ccccc1)C(=O)N[C@@H](Cc1ccccc1)C(=O)C(=O)NCCNS(=O)(=O)c1ccc(-c2cccc(C#N)c2)s1 [Compound 104]
12 | C[C@H](OCc1ccccc1)[C@@H](NS(C)(=O)=O)C(=O)N[C@@H](Cc1ccccc1)C(=O)C(=O)NCCNS(=O)(=O)c1ccc(-c2ccccn2)s1 [Compound 66]
18 | CS(=O)(=O)NC(COCc1ccccc1)C(=O)NC(Cc1ccccc1)C(=O)C(=O)NCCNS(=O)(=O)c1ccc(-c2cccc(F)c2)s1 (mixture of isomers) [Compound 72]
10 | CC(=O)c1cccc(-c2ccc(S(=O)(=O)NCCNC(=O)C(=O)C(Cc3ccccc3)NC(=O)C(COCc3ccccc3)NS(C)(=O)=O)s2)c1 (mixture of isomers) [Compound 77]
11 | CC(=O)Nc1cccc(-c2ccc(S(=O)(=O)NCCNC(=O)C(=O)C(Cc3ccccc3)NC(=O)C(COCc3ccccc3)NS(C)(=O)=O)s2)c1 (mixture of isomers) [Compound 76]
33 | CC(C)C[C@H](NC(=O)OCc1ccccc1)C(=O)N[C@@H](CC(C)C)C(=O)N[C@@H](Cc1ccccc1)C(=O)C(=O)NCCNS(=O)(=O)c1ccc(-c2ccccn2)s1 [Compound 88]
15 | CS(=O)(=O)NC(COCc1ccccc1)C(=O)NC(Cc1ccccc1)C(=O)C(=O)NCCNS(=O)(=O)c1ccc(-c2cccc([N+](=O)[O-])c2)s1 (mixture of isomers) [Compound 74]

Same assay, conditions: Table 4; 0.1 μM compound; value in brackets marked *

Percent inhibition @ 0.1 μM (Calpain) | SMILES
(33)* Percent | CS(=O)(=O)N[C@H](COCc1ccccc1)C(=O)N[C@@H](Cc1ccccc1)C(=O)C(=O)NC1CCC(=O)NC1 (stereo partly drawn) [Compound 64]

Same assay, conditions: Table 5, achiral P2 mimetic α-ketoamides

IC50 [nM] | SMILES
420 | N#Cc1cccc(-c2ccc(S(=O)(=O)NCCNC(=O)C(=O)[C@H](Cc3ccccc3)NC(=O)CCC3CCCC3)s2)c1 [Compound 151]
65 | COc1ccc(Cl)c(C(=O)N[C@@H](Cc2ccccc2)C(=O)C(=O)NCCNS(=O)(=O)c2ccc(-c3ccccn3)s2)c1 [Compound 125]
61 | Cc1ccc(Cl)c(C(=O)N[C@@H](Cc2ccccc2)C(=O)C(=O)NCCNS(=O)(=O)c2ccc(-c3ccccn3)s2)c1Cl [Compound 119]
29 | CC(C)CCC(=O)N[C@@H](Cc1ccccc1)C(=O)C(=O)NCCNS(=O)(=O)c1ccc(-c2ccccn2)s1 [Compound 145]
590 | CC(C)CC(=O)N[C@@H](Cc1ccccc1)C(=O)C(=O)NCCNS(=O)(=O)c1ccc(-c2ccccn2)s1 [Compound 144]
11 | N#Cc1cccc(-c2ccc(S(=O)(=O)NCCNC(=O)C(=O)[C@H](Cc3ccccc3)NC(=O)c3c(Cl)cccc3Cl)s2)c1 [Compound 133]
145 | CCc1cccc(CC)c1C(=O)N[C@@H](Cc1ccccc1)C(=O)C(=O)NCCNS(=O)(=O)c1ccc(-c2ccon2)s1 [Compound 137]
600 | O=C(NCCNS(=O)(=O)c1ccc(-c2ccccn2)s1)C(=O)[C@H](Cc1ccccc1)NC(=O)c1cc(C(F)(F)F)cc(C(F)(F)F)c1 [Compound 126]
15 | CC(C)CCC(=O)N[C@@H](Cc1ccccc1)C(=O)C(=O)NCCNS(=O)(=O)c1ccc(-c2cccc(C#N)c2)s1 [Compound 150]
